Among the data in ChEMBL document CHEMBL4673315, “Structure-activity relationship (SAR) studies on the mutagenic properties of 2,7-diaminofluorene and 2,7-diaminocarbazole derivatives” (Bioorg Med Chem Lett, 2021) are Activity and EC50 values, retold here.

The nature of data set [1]: Mutagenicity in Salmonella typhimurium TA100 in presence of liver S9 fraction by AMES test. Format: toxicity, subcellular. The following applies: salmonella enterica subsp. enterica serovar typhimurium.
Data set [2] in a line: Mutagenicity in Salmonella typhimurium TA100 by AMES test. Format: toxicity. The following applies: salmonella enterica subsp. enterica serovar typhimurium.
Data set [3] is described as follows: Mutagenicity in Salmonella typhimurium TA98 in presence of liver S9 fraction by AMES test. The format is toxicity, subcellular. The following applies: salmonella enterica subsp. enterica serovar typhimurium.
The nature of data set [4]: Mutagenicity in Salmonella typhimurium TA98 by AMES test. The format is toxicity. The following applies: salmonella enterica subsp. enterica serovar typhimurium.
The test system of data set [5] is Hepatitis C virus. The data set is described as follows: Antiviral activity against Hepatitis C virus subtype 1b harboring NS5A L31V/Y93H double mutant infected in Huh 7.5.1 cells assessed as reduction in viral replication incubated for 3 days by NK5.1 luciferase reporter gene assay. The format is functional, organism-based, Hepacivirus hominis. The following applies: Huh-7.5.1, 72 h.

Data set [6] deals with Hepatitis C virus. The data set is described as follows: Antiviral activity against Hepatitis C virus subtype 1b harboring NS5A Y93H mutant infected in Huh 7.5.1 cells assessed as reduction in viral replication incubated for 3 days by NK5.1 luciferase reporter gene assay. Format: functional, organism-based, Hepacivirus hominis. The following applies: Huh-7.5.1, 72 h. For orientation: In a reporter assay the amount or activity of a reporter protein is the signal.

For data set [7], the system named is Hepatitis C virus. As to the kind of experiment: Antiviral activity against Hepatitis C virus subtype 1b harboring NS5A L31V mutant infected in Huh 7.5.1 cells assessed as reduction in viral replication incubated for 3 days by NK5.1 luciferase reporter gene assay. Format: functional, organism-based, Hepacivirus hominis. The following applies: Huh-7.5.1, 72 h.

Data set [8] has as its system Hepatitis C virus. As to the kind of experiment: Antiviral activity against Hepatitis C virus subtype 3a infected in Huh 7.5.1 cells assessed as reduction in viral replication incubated for 3 days by S52-Feo luciferase reporter gene assay. The format is functional, organism-based, Hepacivirus hominis. The following applies: Huh-7.5.1, 72 h.
Data set [9] concerns Hepatitis C virus. The data set is described as follows: Antiviral activity against Hepatitis C virus subtype 2a infected in Huh 7.5.1 cells assessed as reduction in viral replication incubated for 3 days by JC1 Gaussia luciferase reporter gene assay. Format: functional, organism-based, Hepacivirus hominis. The following applies: Huh-7.5.1, 72 h.
In data set [10] the test system is Hepatitis C virus. The data set is described as follows: Antiviral activity against Hepatitis C virus subtype 1b infected in Huh 7.5.1 cells assessed as reduction in viral replication incubated for 3 days by NK5.1 luciferase reporter gene assay. The format is functional, organism-based, Hepacivirus hominis. The following applies: Huh-7.5.1, 72 h.

Regarding `Nc1ccc2c(c1)C(c1ccc3ccccc3c1)c1cc(N)ccc1-2`, the Activity entry in data set [1] is “Non-Toxic”; in data set [2], “Non-Toxic”; in data set [3], “Toxic”; in data set [4], “Non-Toxic”.
With `Nc1ccc2c(c1)C(=Cc1ccncc1)c1cc(N)ccc1-2`, the Activity result in data set [1] was “Toxic”; in data set [2], “Non-Toxic”; in data set [3], “Toxic”; in [4], “Non-Toxic”.
Regarding `Nc1ccc2c(c1)C(CCCCC(F)(F)F)(CCCCC(F)(F)F)c1cc(N)ccc1-2`, the Activity result in [1], in [2], in [3] and in [4] was “Non-Toxic” each time.
`Nc1ccc2c3ccc(N)cc3n(C(C3CC3)C3CC3)c2c1`: the Activity entry in data set [1] was “Toxic”; in data set [2], “Non-Toxic”; in [3], “Toxic”; in [4], “Non-Toxic”.
Take `CCCC1(CCC)c2cc(N)ccc2-c2ccc(N)cc21`: the Activity entry is on record as “Non-Toxic” in [1], “Non-Toxic” in data set [2], “Toxic” in data set [3] and “Non-Toxic” in data set [4].
As for `Nc1ccc2c(c1)C(Cc1ccc(C(F)(F)F)cc1)c1cc(N)ccc1-2`, the Activity result is listed as “Non-Toxic” in [1], “Non-Toxic” in data set [2], “Toxic” in data set [3] and “Toxic” in data set [4].
For `Nc1ccc2c(c1)C(c1ccc(Br)cc1)c1cc(N)ccc1-2`, the Activity result in data set [1] is recorded as “Non-Toxic”; in [2] it was “Non-Toxic”; in [3], “Toxic”; in data set [4] it was “Non-Toxic”.
With `COCCOc1cccc(Cn2c3cc(N)ccc3c3ccc(N)cc32)c1`, the Activity entry is listed as “Non-Toxic” in [1], “Non-Toxic” in data set [2], “Toxic” in [3] and “Non-Toxic” in data set [4].
With `CC(c1ccccc1)n1c2cc(N)ccc2c2ccc(N)cc21` (stereo not given), the Activity entry is “Toxic” in data set [1], “Non-Toxic” in [2], “Toxic” in data set [3] and “Non-Toxic” in data set [4].
Regarding `CCCCCCCCCCCCn1c2cc(N)ccc2c2ccc(N)cc21`, the Activity result in [1], in data set [2], in [3] and in data set [4] was “Non-Toxic” each time.
Turning to `Nc1ccc2c(c1)C(CCCC(F)(F)F)(CCCC(F)(F)F)c1cc(N)ccc1-2`, the Activity result in data set [1] is recorded as “Non-Toxic”; in data set [2], “Non-Toxic”; in [3] it was “Toxic”; in data set [4], “Non-Toxic”.
On to `CCCCn1c2cc(N)ccc2c2ccc(N)cc21`, for which the Activity entry in [1], in data set [2], in data set [3] and in data set [4] was “Toxic” each time.
Take `CC(C)c1ccc(C2c3cc(N)ccc3-c3ccc(N)cc32)cc1`: the Activity entry in data set [1] was “Non-Toxic”; in data set [2], “Non-Toxic”; in [3], “Toxic”; in data set [4], “Non-Toxic”.
As to `CCCCC(c1ccccc1)n1c2cc(N)ccc2c2ccc(N)cc21` (stereo not given), the Activity entry is recorded as “Non-Toxic” in data set [1], “Non-Toxic” in [2], “Toxic” in data set [3] and “Non-Toxic” in data set [4].
On to `Nc1ccc2c3ccc(N)cc3n(CCCCCCCCCCN3CCOCC3)c2c1`, for which the Activity entry in data set [1], in data set [2], in data set [3] and in data set [4] was “Non-Toxic” each time.
Turning to `CCCCCCCCCC(c1ccccc1)n1c2cc(N)ccc2c2ccc(N)cc21` (stereo not given), the Activity result in data set [1], in data set [2], in data set [3] and in [4] was “Non-Toxic” each time.
In the case of `CC(C)=CC1c2cc(N)ccc2-c2ccc(N)cc21`, the Activity entry in data set [1], in data set [2], in data set [3] and in data set [4] was “Toxic” in each case.
For the molecule `CCCCOc1ccc(Cn2c3cc(N)ccc3c3ccc(N)cc32)cc1`, the Activity entry in [1] is reported as “Non-Toxic”; in data set [2], “Non-Toxic”; in [3] it was “Toxic”; in data set [4] it was “Non-Toxic”.
Consider `CCCCCCOc1ccc(Cn2c3cc(N)ccc3c3ccc(N)cc32)cc1`, for which the Activity entry in data set [1] was “Non-Toxic”; in data set [2], “Non-Toxic”; in data set [3] it was “Toxic”; in data set [4], “Non-Toxic”.
Turning to `Nc1ccc2c(c1)C(c1ccc(C(F)(F)F)cc1)c1cc(N)ccc1-2`, the Activity result is recorded as “Non-Toxic” in [1], “Non-Toxic” in [2], “Toxic” in data set [3] and “Non-Toxic” in data set [4].
As to `Nc1ccc2c(c1)C(=Cc1ccc(C(F)(F)F)cc1)c1cc(N)ccc1-2`, the Activity entry is given as “Non-Toxic” in [1], “Non-Toxic” in data set [2], “Toxic” in data set [3] and “Toxic” in [4].
As to `Nc1ccc2c3ccc(N)cc3n(Cc3cccc(OC4CCCC4)c3)c2c1`, the Activity entry is reported as “Non-Toxic” in [1], “Non-Toxic” in data set [2], “Toxic” in data set [3] and “Non-Toxic” in data set [4].
Take `CC(C)(C)c1ccc(C2c3cc(N)ccc3-c3ccc(N)cc32)cc1`: the Activity result in data set [1] is “Non-Toxic”; in data set [2], “Non-Toxic”; in data set [3], “Toxic”; in data set [4] it was “Non-Toxic”.
Turning to `CCCCC(CCCC)n1c2cc(N)ccc2c2ccc(N)cc21`, the Activity result in data set [1], in [2], in data set [3] and in [4] was “Non-Toxic” each time.
In the case of `CCCCCCCCCCn1c2cc(N)ccc2c2ccc(N)cc21`, the Activity entry in [1] is “Non-Toxic”; in data set [2], “Non-Toxic”; in data set [3], “Toxic”; in [4], “Non-Toxic”.
On to `Nc1ccc2c(c1)C(c1ccc(F)cc1)c1cc(N)ccc1-2`, for which the Activity entry is given as “Non-Toxic” in [1], “Non-Toxic” in [2], “Toxic” in data set [3] and “Non-Toxic” in data set [4].
As a reminder, the EC50 is the concentration at which the effect is half-maximal. Take `CCCCC1(CCCC)c2cc(NC(=O)[C@@H]3C[C@@H](O)CN3C(=O)[C@H](NC(=O)OC)c3ccccc3)ccc2-c2ccc(NC(=O)[C@@H]3C[C@@H](O)CN3C(=O)[C@H](NC(=O)OC)c3ccccc3)cc21`: the concentration for a half-maximal effect (EC50) was 41.4 nM in data set [5]; 0.88 nM in data set [6]; 0.003 nM in data set [7]; 0.016 nM in data set [8]; 1.2 nM in [9]; 0.002 nM in data set [10].
